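Tested at 5 concentrations; 48 h exposure; 96-well plates; endpoints linearly interpolated, else capped at highest concentration. TGI marks complete inhibition of growth.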
Experiments:
Assay in all cases: NCI anticancer screen, dose series, 48 h
[1] = test system: KM20L2 colon
[2] = test system: OVCAR-3 ovarian
[3] = test system: OVCAR-8 ovarian
[4] = test system: CAKI-1 renal
[5] = test system: RXF 393 renal
[6] = test system: SF-268 CNS
[7] = test system: MOLT-4 leukemia
[8] = test system: HCC-2998 colon
[9] = test system: LOX IMVI melanoma
[10] = test system: DMS 114 small cell lung
[11] = test system: RXF-631 renal
[12] = test system: U251 CNS
[13] = test system: A549 NSCLC
[14] = test system: SF-539 CNS
[15] = test system: SNB-19 CNS
[16] = test system: K-562 leukemia
[17] = test system: HOP-92 NSCLC
[18] = test system: LXFL 529 NSCLC
[19] = test system: SK-MEL-2 melanoma
[20] = test system: SF-295 CNS
[21] = test system: UACC-62 melanoma
[22] = test system: ACHN renal
[23] = test system: SK-MEL-28 melanoma
[24] = test system: DMS 273 small cell lung
[25] = test system: COLO 205 colon
[26] = test system: IGROV1 ovarian
[27] = test system: HCT-15 colon
[28] = test system: DLD-1 colon
[29] = test system: HCT-116 colon
[30] = test system: A498 renal
[31] = test system: CCRF-CEM leukemia
[32] = test system: OVCAR-5 ovarian
[33] = test system: MALME-3M melanoma
[34] = test system: NCI-H460 lung
[35] = test system: SK-OV-3 ovarian
[36] = test system: M19-MEL melanoma
[37] = test system: TK-10 renal
[38] = test system: UACC-257 melanoma
[39] = test system: EKVX NSCLC
[40] = test system: HL-60(TB) leukemia
[41] = test system: HT29 colon
[42] = test system: SK-MEL-5 melanoma
[43] = test system: OVCAR-4 ovarian
[44] = test system: SW-620 colon
[45] = test system: SR leukemia
[46] = test system: KM12 colon
[47] = test system: SN12C renal
[48] = test system: UO-31 renal
[49] = test system: SNB-75 CNS
[50] = test system: M14 melanoma
[51] = test system: NCI-H23 lung
[52] = test system: NCI-H522 lung
[53] = test system: 786-0 renal
[54] = test system: NCI-H226 lung
[55] = test system: HOP-62 NSCLC
[56] = test system: XF 498 CNS
[57] = test system: RPMI-8226 leukemia

Structure (SMILES): C=C(C)C1CC=C(C(=O)O)CC1 (centres undefined)
- TGI [1]: > 5000 µM
- TGI [2]: 1660 µM
- TGI [3]: > 5000 µM
- TGI [4]: 4080 µM
- TGI [5]: 3110 µM
- TGI [6]: 4060 µM
- TGI [7]: > 5000 µM
- TGI [8]: 2340 µM
- TGI [9]: 3440 µM
- TGI [10]: > 5000 µM
- TGI [11]: 1620 µM
- TGI [12]: 2630 µM
- TGI [13]: 3470 µM
- TGI [14]: 2510 µM
- TGI [15]: 4330 µM
- TGI [16]: > 5000 µM
- TGI [17]: 3930 µM
- TGI [18]: > 5000 µM
- TGI [19]: 3220 µM
- TGI [20]: > 5000 µM
- TGI [21]: 1450 µM
- TGI [22]: > 5000 µM
- TGI [23]: 2640 µM
- TGI [24]: > 5000 µM
- TGI [25]: 1620 µM
- TGI [26]: 1480 µM
- TGI [27]: 1670 µM
- TGI [28]: > 5000 µM
- TGI [29]: 1500 µM
- TGI [30]: 4420 µM
- TGI [31]: 2770 µM
- TGI [32]: > 5000 µM
- TGI [33]: 1630 µM
- TGI [34]: 3950 µM
- TGI [35]: > 5000 µM
- TGI [36]: 2970 µM
- TGI [37]: > 5000 µM
- TGI [38]: 3450 µM
- TGI [39]: > 5000 µM
- TGI [40]: 2630 µM
- TGI [41]: > 5000 µM
- TGI [42]: 1450 µM
- TGI [43]: > 5000 µM
- TGI [44]: > 5000 µM
- TGI [45]: 4650 µM
- TGI [46]: 2140 µM
- TGI [47]: > 5000 µM
- TGI [48]: 4030 µM
- TGI [49]: 3780 µM
- TGI [50]: > 5000 µM
- TGI [51]: 2200 µM
- TGI [52]: 1830 µM
- TGI [53]: 4700 µM
- TGI [54]: 2590 µM
- TGI [55]: 1770 µM

Structure (SMILES): CCN1C(C)=NC2C(=O)c3ccccc3C(=O)C21 (centres undefined)
- TGI [1]: 68.2 µM
- TGI [2]: > 100 µM
- TGI [3]: > 100 µM
- TGI [5]: > 100 µM
- TGI [6]: > 100 µM
- TGI [7]: > 100 µM
- TGI [8]: 79.3 µM
- TGI [9]: > 100 µM
- TGI [10]: > 100 µM
- TGI [11]: > 100 µM
- TGI [56]: > 100 µM
- TGI [12]: > 100 µM
- TGI [13]: > 100 µM
- TGI [14]: > 100 µM
- TGI [15]: > 100 µM
- TGI [16]: > 100 µM
- TGI [18]: > 100 µM
- TGI [19]: > 100 µM
- TGI [20]: > 100 µM
- TGI [21]: > 100 µM
- TGI [22]: > 100 µM
- TGI [23]: > 100 µM
- TGI [24]: > 100 µM
- TGI [25]: > 100 µM
- TGI [26]: > 100 µM
- TGI [27]: > 100 µM
- TGI [29]: > 100 µM
- TGI [30]: > 100 µM
- TGI [31]: > 100 µM
- TGI [33]: > 100 µM
- TGI [34]: > 100 µM
- TGI [36]: > 100 µM
- TGI [37]: > 100 µM
- TGI [38]: > 100 µM
- TGI [40]: > 100 µM
- TGI [41]: > 100 µM
- TGI [42]: 68 µM
- TGI [43]: 62.7 µM
- TGI [44]: > 100 µM
- TGI [57]: > 100 µM
- TGI [45]: > 100 µM
- TGI [47]: > 100 µM
- TGI [48]: > 100 µM
- TGI [49]: > 100 µM
- TGI [50]: > 100 µM
- TGI [51]: > 100 µM
- TGI [53]: > 100 µM
- TGI [54]: > 100 µM
- TGI [55]: > 100 µM

Source: PubChem BioAssay (NCI)
